Assay results taken from US20260042769A1, “TRIARYL AGONISTS OF ALPHA-2 ADRENERGIC RECEPTORS” (ALCEPTOR THERAPEUTICS, INC., priority 2023, published 2026).

Molecular target: T1, human ADRA2B receptor (Homo sapiens, UniProt P18089)
T1 construct: expressed in transfected cells
T1 sequence (P18089 1-450): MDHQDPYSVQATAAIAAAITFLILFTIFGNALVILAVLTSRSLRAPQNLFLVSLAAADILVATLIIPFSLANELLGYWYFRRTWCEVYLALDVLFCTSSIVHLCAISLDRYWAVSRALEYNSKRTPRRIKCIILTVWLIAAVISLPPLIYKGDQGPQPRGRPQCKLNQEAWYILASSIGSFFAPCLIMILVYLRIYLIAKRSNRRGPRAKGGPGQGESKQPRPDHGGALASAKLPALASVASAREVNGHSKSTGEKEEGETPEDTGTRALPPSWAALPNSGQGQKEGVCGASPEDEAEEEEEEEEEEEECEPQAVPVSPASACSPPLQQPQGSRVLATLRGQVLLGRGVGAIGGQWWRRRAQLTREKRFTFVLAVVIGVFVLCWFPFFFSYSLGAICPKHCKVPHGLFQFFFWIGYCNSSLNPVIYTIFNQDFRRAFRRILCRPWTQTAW
Experiment: ADRA2B arrestin agonist assay
Format: cell-based
Details: CHO-K1 cells stably expressing human ADRA2B; read-out: Beta-Arrestin - Human Alpha2B EC50
Description: ADRA2A and ADRA2B Arrestin Agonist Assay Method
The arrestin assay uses frozen CHO-K1 cell lines stably expressing human ADRA2A and ADRA2B receptors. Cells are frozen following normal cell freezing protocols. Briefly, cells are washed with PBS and then dissociated with 0.25% trypsin. Dissociated cells are quenched in full media and then collected by centrifugation at 290×g for 5 minutes. […] Cells are stored at −80° C. (or in liquid N2 if stored >6 months) until the day of the assay.
On the day before the assay, frozen cells are thawed in a 37° C. water bath, brought up in 20 mL of full media, and collected via centrifugation at 290×g for 5 minutes. […] Cells are incubated overnight in a 37° C., 5% CO2 cell incubator.
On the day of the assay, agonists are diluted in Opti-MEM to 3.5x of the final assay concentration. 4 μL of agonists are added to the cells and incubated for 2 hours at 37° C. in a 5% CO2 cell incubator. 6 μL of arrestin detection reagents are dispensed onto the cells and the plates are incubated for 2 hours at room temperature. […] Plates are read on an Envision luminescence plate reader.

SMILES | EC50 [nM]
Clc1cccc(C(Cc2cccnn2)c2c[nH]cn2)c1 (stereo not shown) [Compound 139, 3-[2-(m-chlorophenyl)-2-(4-imidazolyl)ethyl] pyridazine] | > 500
COc1cccc(C(Cc2cccnn2)c2c[nH]cn2)c1C (stereo not shown) [Compound 140, 3-[2-(4-imidazolyl)-2 (3-methoxy-2-tolyl)ethyl]pyridazine] | > 500
Cc1nccc(C[C@@H](c2c[nH]cn2)c2cccc(C)c2F)n1 [Compound 141, 4-[(R)-2-(2-fluoro-3-tolyl)-2-(4-imidazolyl)ethyl]-2-methylpyrimidine] | < 10
Cc1nccc(C[C@H](c2c[nH]cn2)c2cccc(C)c2F)n1 [Compound 142, 4-[(S)-2-(2-fluoro-3-tolyl)-2-(4-imidazolyl)ethyl]-2-methylpyrimidine] | > 500
Cc1cc(C[C@@H](c2c[nH]cn2)c2cccc(C)c2F)ncn1 [Compound 143, 4-[(R)-2-(2-fluoro-3-tolyl)-2-(4-imidazolyl)ethyl]-6-methylpyrimidine] | < 10
Cc1cc(C[C@H](c2c[nH]cn2)c2cccc(C)c2F)ncn1 [Compound 144, 4-[(S)-2-(2-fluoro-3-tolyl)-2-(4-imidazolyl)ethyl]-6-methylpyrimidine] | > 500
Cc1cccc(C(Cc2ccc(C#N)nc2)c2c[nH]cn2)c1C (stereo not shown) [Compound 145, 5-[2-(4-imidazolyl)-2 (2,3-xylyl)ethyl]-2-pyridinecarbonitrile] | 10 to 50
Cc1cccc([C@@H](Cc2cccc(CO)n2)c2c[nH]cn2)c1C [Compound 146, {6-[(R)-2-(4-imidazolyl)-2-(2,3-xylyl)ethyl]-2-pyridyl}methanol] | < 10
Cc1cccc([C@H](Cc2cccc(CO)n2)c2c[nH]cn2)c1C [Compound 147, {6-[(S)-2-(4-imidazolyl)-2-(2,3-xylyl)ethyl]-2-pyridyl}methanol] | > 500
Cc1cccc([C@@H](Cc2cccc(CF)n2)c2c[nH]cn2)c1C [Compound 150, 4-{(R)-2-[6-(fluoromethyl)-2-pyridyl]-1-(2,3-xylyl)ethyl}imidazole] | < 10
Cc1cccc([C@H](Cc2cccc(CF)n2)c2c[nH]cn2)c1C [Compound 151, 4-{(S)-2-[6-(fluoromethyl)-2-pyridyl]-1-(2,3-xylyl)ethyl}imidazole] | 50 to 500
Cc1cccc([C@@H](Cc2ccnc(CF)n2)c2c[nH]cn2)c1C [Compound 153, 4-[(R)-2-(4-imidazolyl)-2-(2,3-xylyl)ethyl]-2-(fluoromethyl) pyrimidine] | < 10
COc1nccc(CC(c2c[nH]cn2)c2cccc(F)c2C)n1 (stereo not shown) [Compound 154, 4-[2-(3-fluoro-2-tolyl)-2-(4-imidazolyl)ethyl]-2-methoxypyrimidine] | 10 to 50
COc1nccc(CC(c2c[nH]cn2)c2cccc(C)c2F)n1 (stereo not shown) [Compound 155, 4-[2-(2-fluoro-3-tolyl)-2-(4-imidazolyl)ethyl]-2-methoxypyrimidine] | < 10
Cc1cccc(C(Cc2ccnc(CO)n2)c2c[nH]cn2)c1F (stereo not shown) [Compound 156, {4-[2-(2-fluoro-3-tolyl)-2-(4-imidazolyl)ethyl]-2-pyrimidinyl}methanol] | < 10
Cc1nccc(CC(c2c[nH]cn2)c2cccc(C)c2Cl)n1 (stereo not shown) [Compound 157, 4-[2-(2-chloro-3-tolyl)-2-(4-imidazolyl)ethyl]-2-methylpyrimidine] | < 10
Cc1nccc(CC(c2c[nH]cn2)c2cccc(Cl)c2C)n1 (stereo not shown) [Compound 158, 4-[2-(3-chloro-2-tolyl)-2-(4-imidazolyl)ethyl]-2-methylpyrimidine] | < 10
Cc1nccc(CC(c2ccc3cccnc3c2)c2c[nH]cn2)n1 (stereo not shown) [Compound 161, 4-[2-(4-imidazolyl)-2-(7-quinolyl)ethyl]-2-methylpyrimidine] | > 500
COc1nccc(CC(c2ccc(F)c(F)c2)c2c[nH]cn2)n1 (stereo not shown) [Compound 162, 4-[2-(3,4-difluorophenyl)-2-(4-imidazolyl)ethyl]-2-methoxypyrimidine] | > 500
Cc1cc(CC(c2c[nH]cn2)c2cccc(Cl)c2F)ncn1 (stereo not shown) [Compound 163, 4-[2-(3-chloro-2-fluorophenyl)-2-(4-imidazolyl)ethyl]-6-methylpyrimidine] | 50 to 500
Cc1cc(CC(c2c[nH]cn2)c2cccc3ccn(C)c23)ncn1 (stereo not shown) [Compound 165, 4-[2-(4-imidazolyl)-2-(1-methyl-7-indolyl)ethyl]-6-methylpyrimidine] | 50 to 500
Cc1nccc(CC(c2c[nH]cn2)c2cccc3c2cnn3C)n1 (stereo not shown) [Compound 167, 4-[1-(4-imidazolyl)-2-(2-methyl-4-pyrimidinyl)ethyl]-1-methyl-1H-indazole] | < 10
Cc1cccc([C@H](Cc2ccnc(C3CC3)n2)c2c[nH]cn2)c1C [Compound 168, 4-[(S)-2-(4-imidazolyl)-2-(2,3-xylyl)ethyl]-2-cyclopropylpyrimidine] | 10 to 50
Cc1cccc([C@@H](Cc2ccnc(C3CC3)n2)c2c[nH]cn2)c1C [Compound 169, 4-[(R)-2-(4-imidazolyl)-2-(2,3-xylyl)ethyl]-2-cyclopropylpyrimidine] | < 10

Next, values leading:

EC50 [nM] | SMILES
> 500 | Cc1nccc(CC(c2ccc3c(c2)OCCO3)c2c[nH]cn2)n1 (stereo not shown) [Compound 175, 4-[2-(2,3-dihydro-1,4-benzodioxin-6-yl)-2-(4 imidazolyl)ethyl]-2-methylpyrimidine]
< 10 | COCc1nccc(CC(c2c[nH]cn2)c2cccc(C)c2C)n1 (stereo not shown) [Compound 176, 4-[2-(4-imidazolyl)-2-(2,3-xylyl)ethyl]-2-(methoxymethyl) pyrimidine]
< 10 | COc1nccc(C[C@@H](c2c[nH]cn2)c2cccc(C)c2OC)n1 [Compound 179, 4-[(R)-2-(4-imidazolyl)-2-(2-methoxy-3-tolyl)ethyl]-2-methoxypyrimidine]
> 500 | COc1nccc(C[C@H](c2c[nH]cn2)c2cccc(C)c2OC)n1 [Compound 180, 4-[(S)-2-(4-imidazolyl)-2-(2-methoxy-3-tolyl)ethyl]-2-methoxypyrimidine]
10 to 50 | COc1nccc(CC(c2c[nH]cn2)c2cccc(OC)c2F)n1 (stereo not shown) [Compound 181, 4-[2-(2-fluoro-3-methoxyphenyl)-2-(4-imidazolyl)ethyl]-2-methoxypyrimidine]
10 to 50 | COc1nccc(C[C@@H](c2c[nH]cn2)c2cccc(F)c2OC)n1 [Compound 182, 4-[(R)-2-(3-fluoro-2-methoxyphenyl)-2-(4-imidazolyl)ethyl]-2-methoxypyrimidine]
> 500 | COc1nccc(C[C@H](c2c[nH]cn2)c2cccc(F)c2OC)n1 [Compound 183, 4-[(S)-2-(3-fluoro-2-methoxyphenyl)-2-(4-imidazolyl)ethyl]-2-methoxypyrimidine]
50 to 500 | COc1c(Cl)cccc1C(Cc1ccnc(C)n1)c1c[nH]cn1 (stereo not shown) [Compound 187, 4-[2-(3-chloro-2-methoxyphenyl)-2-(4-imidazolyl)ethyl]-2-methylpyrimidine]
> 500 | COc1nccc(CC(c2c[nH]cn2)c2ccc(C)c(F)c2F)n1 (stereo not shown) [Compound 189, 4-[2-(2,3-difluoro-4-tolyl)-2-(4-imidazolyl)ethyl]-2-methoxypyrimidine]
10 to 50 | COc1nccc(CC(c2c[nH]cn2)c2cccc(Cl)c2F)n1 (stereo not shown) [Compound 190, 4-[2-(3-chloro-2-fluorophenyl)-2-(4-imidazolyl)ethyl]-2-methoxypyrimidine]
10 to 50 | OCc1nccc(CC(c2c[nH]cn2)c2cccc(Cl)c2F)n1 (stereo not shown) [Compound 191, {4-[2-(3-chloro-2-fluorophenyl)-2-(4-imidazolyl)ethyl]-2-pyrimidinyl}methanol]
< 10 | Cc1nccc(CC(c2c[nH]cn2)c2cccc(Cl)c2Cl)n1 (stereo not shown) [Compound 192, 4-[2-(2,3-dichlorophenyl)-2-(4-imidazolyl)ethyl]-2-methylpyrimidine]
10 to 50 | COc1nccc(CC(c2c[nH]cn2)c2ccccc2OC2CC2)n1 (stereo not shown) [Compound 195, 4-[2-(o-cyclopropoxyphenyl)-2-(4-imidazolyl)ethyl]-2-methoxypyrimidine]
50 to 500 | CCOc1c(F)cccc1C(Cc1ccnc(OC)n1)c1c[nH]cn1 (stereo not shown) [Compound 197, 4-[2-(2-ethoxy-3-fluorophenyl)-2-(4-imidazolyl)ethyl]-2-methoxypyrimidine]
< 10 | COc1nccc(CC(c2c[nH]cn2)c2cccc(C(F)(F)F)c2C)n1 (stereo not shown) [Compound 202, 4-{2-(4-imidazolyl)-2 [3-(trifluoromethyl)-2-tolyl]ethyl}-2-methoxypyrimidine]
< 10 | Cc1cccc([C@@H](Cc2ccnc(C(C)(C)F)n2)c2c[nH]cn2)c1C [Compound 205, 4-[(R)-2-(4-imidazolyl)-2-(2,3-xylyl)ethyl]-2-(1-fluoro-1-methylethyl)pyrimidine]
